Assays:
[1] = CC50 MT4 cytotoxicity (Cell-Titer Glo); assay type: cell-based; conditions: human
Outline: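 CC50 values are the concentrations cutting viability by 50%, fitted by non-linear regression against untreated (100%) and 2 μM puromycin (0%) controls. Cell-Titer Glo luminescence measured after 4-5 days at 37° C exposure of uninfected MT-4 and HEp-2 cells to 3-fold dilutions spanning 15 nM to 100,000 nM.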

[2] = tested on: Caco-2 cells (clone C2BBe1); experiment: CACO-2 permeability; assay type: in vitro ADME; parameters: unit not given here; conditions: for DM Caco2 A to B: apical to basolateral, donor pH 6.5, receiver pH 7.4; for DM Caco2 B to A: basolateral to apical
Outline: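 A-to-B and B-to-A flux measured by LC-MS/MS from receiver samples taken at 1 and 2 h, with donor sampled at 0 and 2 h and recovery checked. Buffers: pH 6.5 HBSS with 200 μM BNPP on the donor side, pH 7.4 with BSA on the receiver side. Monolayers were 21-day cultures, TEER-verified, in duplicate wells.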

Plasma stability = assay type: in vitro ADME; parameters: unit not given here; conditions: 37° C., 2 μM substrate
Outline: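 LC-MS (Q-Exactive, 5 ppm tolerance, 0.1% formic acid water/acetonitrile gradient) quantified compound in quenched aliquots. Aliquots were taken at 0.05, 0.5, 1, 2, 3 and 4 hr and quenched with internal-standard solution, and supernatants were diluted with water after centrifugation.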

[3] = tested on: Respiratory syncytial virus recombinant with luciferase (RSV-Luc5) in Normal Human Bronchial Epithelial (NHBE) cells; experiment: microbe, parasite or virus in culture; assay type: cell-based; conditions: 72 h, read-out: RSV NHBE EC50
[4] = GI S9 stability - no PMSF; assay type: in vitro ADME; conditions: pH 7.4; human intestinal S9, PMSF-free; read-out: GIS9-HUMAN-NoPMSF T1/2
Outline: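 Stability was assessed by Q-Exactive LC-MS peak area ratios against internal standard, tracking loss of parent and appearance of nucleoside metabolite Reference Compound A. Incubations used 2 μM compound in 1 mg/mL intestinal S9 without PMSF (PBS, pH 7.4), with six samples taken over 120 min.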

[5] = tested on: Respiratory syncytial virus recombinant with luciferase (RSV-Luc5) in HEp-2 cells; experiment: microbe, parasite or virus in culture; assay type: cell-based; conditions: human respiratory syncytial virus, HEp-2, 72 h, read-out: RSV Hep2 EC50
[6] = tested on: SARS Coronavirus 2 recombinant with NanoLuc (SARS-CoV2-NLuc) in A549-hACE2 cells; experiment: organism not typed; assay type: cell-based; conditions: 48 h; read-out: SARS-CoV2 EC50

SMILES	CC50 [1] [µM]	DM Caco2 A to B [2]	DM Caco2 B to A [2]	STA Human Plasma 37 (Plasma stability)	EC50 [3] [nM]	half-life at 2 µM [4] [min]	EC50 [5] [nM]	EC50 [6] [nM]
CC1(C)CC(OC(=O)OC[C@H]2O[C@@](C#N)(c3ccc4c(N)ncnn34)[C@H](O)[C@@H]2O)C1 [Compound 31, ((2R,3S,4R,5R)-5-(4-aminopyrrolo[2,1-f][1,2,4]triazin-7-yl)-5-cyano-3,4-dihydroxytetrahydrofuran-2-yl)methyl (3,3-dimethylcyclobutyl) carbonate]	> 50	0.68	13	32.4	803	0.857	322	1080
N#C[C@@]1(c2ccc3c(N)ncnn23)O[C@H](COC(=O)OC2CCCCC2)[C@@H](O)[C@H]1O [Compound 35, ((2R,3S,4R,5R)-5-(4-aminopyrrolo[2,1-f][1,2,4]triazin-7-yl)-5-cyano-3,4-dihydroxytetrahydrofuran-2-yl)methyl cyclohexyl carbonate]	> 50	0.95	10.64	139.6	1010	0.593	651	1910
N#C[C@@]1(c2ccc3c(N)ncnn23)O[C@H](COC(=O)OC2CCOCC2)[C@@H](O)[C@H]1O [Compound 50, ((2R,3S,4R,5R)-5-(4-aminopyrrolo[2,1-f][1,2,4]triazin-7-yl)-5-cyano-3,4-dihydroxytetrahydrofuran-2-yl)methyl (tetrahydro-2H-pyran-4-yl) carbonate]	> 50	0.13	2.76	430.4	1370	15.2	1920	20400
N#C[C@@]1(c2ccc3c(N)ncnn23)O[C@H](COC(=O)OCC23CCC(CC2)C3)[C@@H](O)[C@H]1O [Compound 52, ((2R,3S,4R,5R)-5-(4-aminopyrrolo[2,1-f][1,2,4]triazin-7-yl)-5-cyano-3,4-dihydroxytetrahydrofuran-2-yl)methyl (bicyclo[2.2.1]heptan-1-ylmethyl) carbonate]	38.8	6.95	13.04	85	919	0.655	100	574
N#C[C@@]1(c2ccc3c(N)ncnn23)O[C@H](COC(=O)OCC2CCC2)[C@@H](O)[C@H]1O [Compound 53, ((2R,3S,4R,5R)-5-(4-aminopyrrolo[2,1-f][1,2,4]triazin-7-yl)-5-cyano-3,4-dihydroxytetrahydrofuran-2-yl)methyl (cyclobutylmethyl) carbonate]	> 50	2.34	10.58	13	833	0.636	98	662
CC1(OC(=O)OC[C@H]2O[C@@](C#N)(c3ccc4c(N)ncnn34)[C@H](O)[C@@H]2O)CCCC1 [Compound 56, ((2R,3S,4R,5R)-5-(4-aminopyrrolo[2,1-f][1,2,4]triazin-7-yl)-5-cyano-3,4-dihydroxytetrahydrofuran-2-yl)methyl (1-methylcyclopentyl) carbonate]	> 50	0.35	1.83	77.644	1210	16.5	1260	2520
CCC(C)(CC)OC(=O)OC[C@H]1O[C@@](C#N)(c2ccc3c(N)ncnn23)[C@H](O)[C@@H]1O [Compound 69, ((2R,3S,4R,5R)-5-(4-aminopyrrolo[2,1-f][1,2,4]triazin-7-yl)-5-cyano-3,4-dihydroaytetrahydrofuran-2-yl)methyl (3-methylpentan-3-yl) carbonate]	> 50	1	4.74	294.49	988	48.7	1050	2830
CCC(C)(C)OC(=O)OC[C@H]1O[C@@](C#N)(c2ccc3c(N)ncnn23)[C@H](O)[C@@H]1O [Compound 70, ((2R,3S,4R,5R)-5-(4-aminopyrrolo[2,1-f][1,2,4]triazin-7-yl)-5-cyano-3,4-dihydroxytetrahydrofuran-2-yl)methyl tert-pentyl carbonate]	> 50	0.88	6.91	1399.3	2180	73	1720	2810
CC1(C)C2CCC1(C)C(OC(=O)OC[C@H]1O[C@@](C#N)(c3ccc4c(N)ncnn34)[C@H](O)[C@@H]1O)C2 (stereo partly drawn) [Compound 71, ((2R,3S,4R,5R)-5-(4-aminopyrrolo[2,1-f][1,2,4]triazin-7-yl)-5-cyano-3,4-dihydroxytetrahydrofuran-2-yl)methyl (1,7,7-trimethylbicyclo[2.2.1]heptan-2-yl) carbonate]	47.8	4.02	13.65	1584	532	25.8	3010	7820
N#C[C@@]1(c2ccc3c(N)ncnn23)O[C@H](COC(=O)OCC23CC(C2)C3)[C@@H](O)[C@H]1O [Compound 72, ((2R,3S,4R,5R)-5-(4-aminopyrrolo[2,1-f][1,2,4]triazin-7-yl)-5-cyano-3,4-dihydroxytetrahydrofuran-2-yl)methyl (bicyclo[1.1.1]pentan-1-ylmethyl) carbonate]	> 50	2.52	10.69	31.1	1820	0.623	779	1130
N#C[C@@]1(c2ccc3c(N)ncnn23)O[C@H](COC(=O)OC2CC(F)(F)C2)[C@@H](O)[C@H]1O [Compound 73, ((2R,3S,4R,5R)-5-(4-aminopyrrolo[2,1-f][1,2,4]triazin-7-yl)-5-cyano-3,4-dihydroxytetrahydrofuran-2-yl)methyl (3,3-difluorocyclobutyl) carbonate]	> 50	0.48	4.69	70	1100	0.588	206	1900
N#C[C@@]1(c2ccc3c(N)ncnn23)O[C@H](COC(=O)OC2CCC(F)(F)CC2)[C@@H](O)[C@H]1O [Compound 84, ((2R,3S,4R,5R)-5-(4-aminopyrrolo[2,1-f][1,2,4]triazin-7-yl)-5-cyano-3,4-dihydroxytetrahydrofuran-2-yl)methyl (4,4-difluorocyclohexyl) carbonate]	> 50	0.27	6.99	327.2	205	0.955	311	1540

— US12448383B2, “Compounds and methods for treatment of viral infections” (priority 2022, dated 2025)
